Measured values published in ChEMBL document CHEMBL1201862, “PubChem BioAssay data set” (2004).
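Where inhibition never reached the appropriate level, the endpoint shown equals the highest concentration tested. Otherwise, values were interpolated linearly from a five-concentration, 48-hour dose response in 96-well plates. At the GI50, growth is halved.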 Activity calls are given as the source filed them. Rule as the data show it: active = GI50 up to about 1.1 µM and inactive = higher.

Legend:
Test in all cases: NCI-60 cell line screen, 48 h
TK-10 = test system: TK-10
HOP-62 = test system: HOP-62
HCC 2998 = test system: HCC 2998
NCI-H23 = test system: NCI-H23
SF-295 = test system: SF-295
SF-268 = test system: SF-268
SNB-19 = test system: SNB-19
UACC-62 = test system: UACC-62
OVCAR-3 = test system: OVCAR-3
HL-60 = test system: HL-60
SW-620 = test system: SW-620
A549 = test system: A549
PC-3 = test system: PC-3
OVCAR-8 = test system: OVCAR-8
KM-20L2 = test system: KM-20L2
NCI-H460 = test system: NCI-H460
T47D = test system: T47D
LXFL 529 = test system: LXFL 529
OVCAR-5 = test system: OVCAR-5
MDA-N = test system: MDA-N

Measured: GI50

COc1cc(C[C@H]2c3cc(OC)c(OC)cc3CCN2C)c(Oc2cc3c(cc2OC)-c2c(OC)c(OC)cc4c2[C@H](C3)N(C)CC4)cc1OC [THALICARPINE]
inactive: TK-10 3.61 µM | HOP-62 10.6 µM | HCC 2998 7.6 µM | NCI-H23 12.4 µM | SF-295 10.1 µM | SF-268 9.98 µM | SNB-19 16.7 µM | UACC-62 6.65 µM | OVCAR-3 10.5 µM | HL-60 2.84 µM | SW-620 7.53 µM | A549 11.9 µM | PC-3 4.93 µM | OVCAR-8 7.43 µM | KM-20L2 4.53 µM | NCI-H460 9.16 µM | T47D 10.1 µM | LXFL 529 11 µM | OVCAR-5 10.5 µM | MDA-N 4.13 µM

CCCCCCCCCCCCCCCC(=O)OCCOCCOCCOCCOCCOC(=O)CCCCCCCCCCCCCCC
inactive: TK-10 > 100 µM | HOP-62 > 100 µM | HCC 2998 > 100 µM | NCI-H23 > 100 µM | SF-295 > 100 µM | SF-268 > 100 µM | SNB-19 > 100 µM | UACC-62 > 100 µM | OVCAR-3 > 100 µM | HL-60 > 100 µM | SW-620 > 100 µM | A549 > 100 µM | OVCAR-8 > 100 µM | KM-20L2 > 100 µM | NCI-H460 > 100 µM | LXFL 529 > 100 µM | OVCAR-5 > 100 µM

CCOC(=O)Cc1nc2ccccc2s1
inactive: TK-10 27.5 µM | HOP-62 22.9 µM | HCC 2998 88.1 µM | NCI-H23 15.6 µM | SF-295 17.7 µM | SF-268 18.6 µM | SNB-19 44.5 µM | UACC-62 17.9 µM | OVCAR-3 > 10 µM | HL-60 18.2 µM | SW-620 19.2 µM | A549 22.9 µM | OVCAR-8 17.5 µM | KM-20L2 27.6 µM | NCI-H460 20.4 µM | LXFL 529 16 µM | OVCAR-5 24.9 µM

Cc1ccc(NC(=O)CCC(=O)C(C#N)c2ccc(Cl)cc2)cc1C (stereo not drawn)
inactive: TK-10 > 100 µM | HOP-62 > 100 µM | HCC 2998 > 100 µM | NCI-H23 > 100 µM | SF-295 > 100 µM | SF-268 > 100 µM | SNB-19 > 100 µM | UACC-62 > 100 µM | OVCAR-3 > 100 µM | HL-60 > 100 µM | SW-620 > 100 µM | A549 > 100 µM | OVCAR-8 > 100 µM | KM-20L2 > 100 µM | NCI-H460 > 100 µM | LXFL 529 > 100 µM | OVCAR-5 > 100 µM

CC(C)c1cc(OCC(O)CO)cc(C(C)C)c1 (stereo not drawn)
inactive: TK-10 > 100 µM | HOP-62 > 100 µM | HCC 2998 > 100 µM | NCI-H23 > 100 µM | SF-295 > 100 µM | SF-268 > 100 µM | SNB-19 > 100 µM | UACC-62 > 100 µM | OVCAR-3 > 100 µM | HL-60 > 100 µM | SW-620 > 100 µM | A549 > 100 µM | OVCAR-8 > 100 µM | KM-20L2 > 100 µM | NCI-H460 > 100 µM | LXFL 529 > 100 µM | OVCAR-5 > 100 µM
